In assay [1] the target is T1, GST-tagged SIRT6 (Homo sapiens, UniProt Q8N6T7).
T1 construct: made in house; host or cells: E. coli BL21(DE3)-pRARE
The assay can be described thus: HPLC-based SIRT6 deacetylation assay with H3K9Ac peptide.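 For all read-outs here: recombinant SIRT6 incubated 30 min at 37 °C with 500 µM NAD+ and H3K9Ac peptide, deacetylated H3K9 quantified by reversed-phase HPLC-MRM peak area versus DMSO control.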 The assay is classed as biochemical. The note with it: for Inhibition % 10 µM / inhibition at 10 µM: 10 µM compound; for Inhibition % 10 µM / Activation 100 µM / Inhibition % 100 µM / inhibition at 10 µM / inhibition at 100 µM: mean ± SD, n=3; for Activation 100 µM / Inhibition % 100 µM / inhibition at 100 µM: 100 µM compound; for Activation 100 µM: 40 µM H3K9Ac, fold per Fig. 2C legend.

For assay [2], the target named is T1, GST-tagged SIRT6. Also on record: method as in PMID 26607666. Particulars: cited from earlier work.
The next assay has as its target T2, GST-SIRT6 (Homo sapiens, UniProt Q8N6T7).
T2 construct: made in house; host or cells: E. coli BL21(DE3)-pRARE
The assay can be described thus: In vitro SIRT6 deacetylation of core histones, western blot of H3K9Ac. The assay is classed as biochemical. The note with it: 100 µM. The procedure: Western blot analysis was carried out as previously described, with slight modifications. […] The reaction was stopped with Laemmli (sample buffer) and separated by SDS-PAGE using 10–20% gradient gels and transferred onto polyvinylidene difluoride (PVDF) membranes. H3K9 acetylation was detected with rabbit anti-acetyl H3K9 antibody followed by anti-rabbit HRP-conjugated secondary antibody. Membranes were stripped and re-probed with rabbit anti-histone H3 antibody. Chemiluminescent signal detection and image acquisition were carried out using ECL prime western blotting detection reagents.
3 μg/well of a purified recombinant GST‐SIRT6 protein, 1.25 μg purified whole chicken core histones with 500 μM NAD+ in 25 mM Tris‐HCl, pH 8.0. Analysis were repeated three times and one representative cropped blot is shown (A). Uncropped blots probed with H3K9Ac (B), H3 (C). […]

The text below walks through data of PMC5841289, “Natural polyphenols as sirtuin 6 modulators” (Scientific Reports, 2018).

“Also recorded” adds a separate entry of the source.

T1 sequence (Q8N6T7 whole entry): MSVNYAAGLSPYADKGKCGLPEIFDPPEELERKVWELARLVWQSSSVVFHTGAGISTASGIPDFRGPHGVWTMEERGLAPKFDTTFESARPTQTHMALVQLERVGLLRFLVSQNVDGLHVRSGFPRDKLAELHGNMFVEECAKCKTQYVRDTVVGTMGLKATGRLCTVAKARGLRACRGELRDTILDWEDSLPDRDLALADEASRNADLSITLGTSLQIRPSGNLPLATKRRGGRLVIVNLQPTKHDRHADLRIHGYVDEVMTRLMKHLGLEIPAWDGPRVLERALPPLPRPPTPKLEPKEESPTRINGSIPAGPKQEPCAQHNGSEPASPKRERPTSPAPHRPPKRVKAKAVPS
T2 sequence (Q8N6T7 whole entry): as above

Turning to `COc1ccc(-c2coc3cc(O)cc(O)c3c2=O)cc1` [Compound 20, Biochanin A], on GST-tagged SIRT6 [1], the “SIRT6 activation, in words” value is given as “able to activate deacetylation of SIRT6”; the “SIRT6 inhibition, in words” value is reported as “weak SIRT6 inhibitors”; the “Inhibition % 10 µM” value is on record as 13 ± 0.5%; the “Activation 100 µM” value turned out to be 1.3 ± 0.02 fold. The “Inhibition % 100 µM” value on GST-tagged SIRT6 [1] was 24 ± 0.9%.
`O=C(O[C@@H]1Cc2c(O)cc(O)cc2O[C@@H]1c1ccc(O)c(O)c1)c1cc(O)c(O)c(O)c1` [Compound 8, (−)-Epicatechin gallate]: at GST-tagged SIRT6 [1], the inhibition at 10 µM was found to be 15 ± 0.9%, the “Activation 100 µM” value turned out to be 0.1 ± 0.01 fold and the inhibition at 100 µM is 60 ± 3.6%.
Turning to `O=c1c(-c2ccc(O)cc2)coc2cc(O)cc(O)c12` [Compound 19, Genistein], at GST-tagged SIRT6 [1], the “SIRT6 inhibition, in words” value is listed as “weak SIRT6 inhibitors”; the inhibition at 10 µM is 1.8 ± 0.3%; the “Activation 100 µM” value is listed as 0.7 ± 0.2 fold; the inhibition at 100 µM amounted to 9.6 ± 1.4%.
For `O=C(O[C@@H]1Cc2c(O)cc(O)cc2O[C@@H]1c1cc(O)c(O)c(O)c1)c1cc(O)c(O)c(O)c1` [Compound 9, (−)-Epigallocatechin gallate], in that order: “moderate inhibition”, 10 ± 1.4%, 0.8 ± 0.04 fold and 42 ± 1.9%.
`O=C1C[C@@H](c2ccc(O)c(O)c2)Oc2cc(O)cc(O)c21` [Compound 11, Eriodictoyl]: at GST-tagged SIRT6 [1], the “SIRT6 inhibition, in words” value is on record as “did not improve the inhibitory activity towards SIRT6 compared to compound 1”; the “Inhibition % 10 µM” value stood at 19 ± 2.2%; the “Activation 100 µM” value was 1.1 fold; the “Inhibition % 100 µM” value stood at 27 ± 1.5%.
With `O=C(O)/C=C/c1ccc(O)c(O)c1` [Compound 25, Caffeic Acid], on GST-tagged SIRT6 [1], the “SIRT6 inhibition, in words” value was “inactive”; the “Activation 100 µM” value was 1.0 ± 0.01 fold; the inhibition at 100 µM was -5.9 ± 0.2%.
Regarding `COc1cc(/C=C/C(=O)O)ccc1O` [Compound 26, trans-Ferulic acid], on GST-tagged SIRT6 [1], the “SIRT6 inhibition, in words” value is “inactive”; the “Activation 100 µM” value is 0.9 ± 0.6 fold; the “Inhibition % 100 µM” value was -8.6 ± 0.3%.
As to `O=C1C[C@@H](c2ccc(O)cc2)Oc2cc(O)cc(O)c21` [Compound 10, Naringenin], at GST-tagged SIRT6 [1], the “SIRT6 inhibition, in words” value is recorded as “did not improve the inhibitory activity towards SIRT6 compared to compound 1”; the inhibition at 10 µM was 8.3 ± 1.1%; the “Activation 100 µM” value is given as 1.1 ± 0.05 fold; the inhibition at 100 µM was 23 ± 1.5%.
`O=C(O[C@@H]1Cc2c(O)cc(O)cc2O[C@H]1c1cc(O)c(O)c(O)c1)c1cc(O)c(O)c(O)c1` [Compound 5, (−)-Gallocatechin gallate]: on GST-tagged SIRT6 [1], the inhibition at 10 µM is 79 ± 0.5% and the “Activation 100 µM” value is listed as 0.01 ± 0.01 fold.
For `O=C(O[C@@H]1Cc2c(O)cc(O)cc2O[C@H]1c1ccc(O)c(O)c1)c1cc(O)c(O)c(O)c1` [Compound 4, (−)-Catechin gallate], in that order: 62 ± 0.7% and 0.1 ± 0.03 fold.
On to `Oc1cc(O)c2c(c1)O[C@H](c1ccc(O)c(O)c1)[C@H](O)C2` [Compound 6, (−)-Epicatechin], for which the inhibition at 100 µM on GST-tagged SIRT6 [1] turned out to be 10 ± 0.1%.
As for `COc1cc(CCC(=O)O)ccc1O` [Compound 23, 3-(4-Hydroxy-3-methoxyphenyl)propionic acid], at GST-tagged SIRT6 [1], the “SIRT6 activation, in words” value was “increased slightly SIRT6 activation”; the “Activation 100 µM” value turned out to be 1.8 ± 0.05 fold; the inhibition at 100 µM was -12 ± 1.1%.
`NC(=O)c1cccnc1` [Compound 21, Nicotinamide, reference compound]: the inhibition at 1000 µM against GST-tagged SIRT6 [1] came out at 58 ± 1.3%.
On to `COc1cc(/C=C/C(=O)O)cc(OC)c1O` [Compound 27, Sinapic Acid], for which, on GST-tagged SIRT6 [1], the “SIRT6 inhibition, in words” value was “inactive”; the “Activation 100 µM” value was found to be 0.6 ± 0.2 fold; the “Inhibition % 100 µM” value was found to be 8.0 ± 0.9%.
With `O=c1cc(-c2ccc(O)cc2)oc2cc(O)cc(O)c12` [Compound 12, Apigenin], at GST-tagged SIRT6 [1], the “SIRT6 activation, in words” value is “inactive”; the “Activation 100 µM” value was 0.9 ± 0.01 fold; the inhibition at 100 µM came to 1 ± 0.6%.
Regarding `O=C(O)C=Cc1ccc(O)cc1` [Compound 24, p-Coumaric acid], at GST-tagged SIRT6 [1], the “SIRT6 inhibition, in words” value was “inactive”; the “Activation 100 µM” value is given as 0.6 ± 0.1 fold; the inhibition at 100 µM is 8.5 ± 1.2%.
For the molecule `Oc1cc(O)c2c(c1)O[C@@H](c1ccc(O)c(O)c1)[C@H](O)C2` [Compound 2, (−)-Catechin], on GST-tagged SIRT6 [1], the inhibition at 10 µM was found to be 25 ± 0.8%, the “Activation 100 µM” value was 0.4 ± 0.04 fold and the inhibition at 100 µM is 54%.
In the case of `O=c1cc(-c2ccc(O)c(O)c2)oc2cc(O)cc(O)c12` [Compound 13, Luteolin], the “Modulation of SIRT6 deacetylation activity, in words” value at GST-tagged SIRT6 [2] is “increase SIRT6 deacetylation activity at high concentrations, while also inhibiting deacetylation activity at low concentrations”. Besides, on GST-tagged SIRT6 [1], the “SIRT6 inhibition, in words” value is recorded as “weak inhibitor”; the inhibition at 10 µM amounted to 24 ± 1.8%; the “Activation 100 µM” value is recorded as 1.2 ± 0.04 fold; the inhibition at 100 µM is 29 ± 0.3%.
Take `O=c1c(O)c(-c2cc(O)c(O)c(O)c2)oc2cc(O)cc(O)c12` [Compound 16, Myricetin]: the inhibition at 100 µM against GST-tagged SIRT6 [1] stood at 0%.
In the case of `Oc1cc(O)c2c(c1)O[C@H](c1ccc(O)c(O)c1)[C@@H](O)C2` [Compound 1, (+)-Catechin], at GST-tagged SIRT6 [1], the inhibition at 10 µM was 17 ± 1.6%, the “Activation 100 µM” value turned out to be 0.8 ± 0.02 fold and the inhibition at 100 µM worked out at 26%.
Take `O=c1c(O)c(-c2ccc(O)cc2)oc2cc(O)cc(O)c12` [Compound 14, Kaempferol]: at GST-tagged SIRT6 [1], the “SIRT6 inhibition, in words” value was “inhibitors as well as activators depending on the concentration”; the inhibition at 10 µM is 40 ± 0.8%; the “Activation 100 µM” value stood at 2.2 ± 0.1 fold; the inhibition at 100 µM was 24 ± 1.7%. The “Maximal activation (fold)” value on GST-tagged SIRT6 [1] (at saturating concentrations of compound) is on record as 3.0 fold.
For the molecule `O=c1c(O)c(-c2ccc(O)c(O)c2)oc2cc(O)cc(O)c12` [Compound 15, Quercetin], at GST-tagged SIRT6 [2], the “Modulation of SIRT6 deacetylation activity, in words” value is listed as “increase SIRT6 deacetylation activity at high concentrations, while also inhibiting deacetylation activity at low concentrations”. On GST-tagged SIRT6 [1], the “SIRT6 inhibition, in words” value is reported as “inhibitors as well as activators depending on the concentration”; the inhibition at 10 µM is 27 ± 0.4%; the “Activation 100 µM” value stood at 1.5 ± 0.1 fold; the inhibition at 100 µM was 40 ± 3%.
As to `Oc1cc(O)c2cc(O)c(-c3cc(O)c(O)c(O)c3)[o+]c2c1` [Compound 18, Delphinidin], on GST-SIRT6, the “Increase of deacetylation activity (H3K9Ac on core histones)” value is ~2.5 fold. For the same molecule, at GST-tagged SIRT6 [1], the “SIRT6 activation, in words” value is “increase in deacetylase activity; also recorded: weaker activity against SIRT6 than compound 17”; the “Activation 100 µM” value was determined as 2.2 ± 0.1 fold; the inhibition at 100 µM was 0%.
For the molecule `Oc1cc(O)c2c(c1)O[C@@H](c1cc(O)c(O)c(O)c1)[C@H](O)C2` [Compound 3, (−)-Gallocatechin], at GST-tagged SIRT6 [1], the “SIRT6 inhibition, in words” value was “weak inhibitor”; the inhibition at 10 µM was determined as 17 ± 0.8%; the “Activation 100 µM” value was determined as 0.2 ± 0.01 fold; the inhibition at 100 µM was found to be 23 ± 1%.
In the case of `O=C(O)c1cc(O)c(O)c(O)c1` [Compound 22, Gallic Acid], on GST-tagged SIRT6 [1], the “SIRT6 activation, in words” value was “increased slightly SIRT6 activation”; the “Activation 100 µM” value was 1.4 ± 0.04 fold; the inhibition at 100 µM stood at 14 ± 1.2%.

One may read the inhibition as the change of the read-out against control, counted positive when it falls.
